# Measured values published in patent publication EP0603240B1, “SAFENING HERBICIDAL PYRAZOLYLSULFONYLUREAS” (priority 1991, dated 1993).
# Tests used:
# Type in all cases: in vivo
# corn [1] = assay: Example 8, Procedure II: Herbicide No. 1 + butachlor (No. 9) with antidotes
# Description: (§1) Containers were filled and compacted with a fumigated silt loam top soil to a depth of about 1.3 cm from the top of the container. A first container was designated as an untreated control, a second container was designated as a herbicide control, and a third container was designated as a herbicide + antidote test container. Each of the containers was seeded with a crop species. A measured amount of herbicide dispersed or dissolved in acetone was applied to a measured quantity of soil. To this same quantity of soil treated with herbicide, there was added a measured amount of antidote dispersed or dissolved in acetone. The quantity of soil treated with the herbicide and antidote was thoroughly mixed to incorporate the herbicide and antidote in the soil uniformly. The seed bed in the third container of soil was covered with the soil treated with the herbicide and antidote and the container was leveled. For each test series, the seed beds of the first and second containers were likewise covered by soil layers. the cover layer of the first container was not treated with herbicide or antidote.
# (§2) The containers were then placed on a bench in a greenhouse and sub-irrigated as required for the duration of the test. […] Plant response is measured in terms of percent injury. Antidote efficacy is indicated as the difference in plant injury by the herbicide(s) without the antidote and with the antidote.
# (§3) This procedure is the same as Procedure I, but modified in the manner that after incorporation of the chemicals (herbicide and antidote) the containers with the covered seedbed were treated with an initial overhead irrigation equivalent to 0.6 cm rainfall, then subsequently sub-irrigated as required on greenhouse benches.
# In this test, the efficacy of the same five antidotes used in Examples 6 and 7 was investigated in compositions comprising Herbicide No. 1 and as a co-herbicide, butachlor (Herbicide No. 9), active ingredient in MACHETE® herbicide, a leading commercial rice herbicide. The test procedure used in this example was the same as that in Examples 6 and 7.
# [2] = tested on: barnyardgrass (Echinochloa crusgalli); assay: Example 21, Procedure II: Herbicide No. 1 + SUTAN PLUS (butylate + antidote) with antidotes
# Description: as §1, §2, §3
# (§4) In the series of greenhouse tests described below, for routine screening purposes the herbicide/antidote compositions were tested in crop/weed combinations involving corn as the crop and either or both of the weeds barnyardgrass (Echinochloa crusgalli), a monocotyledonous weed, and velvetleaf (Abutilon theophrasti), a dicotyledonous weed. In the tables below, these weeds are indicated by the symbols "BYG" and "VL", respectively.
# (§5) In this example, tests were conducted as in the preceding Examples 18-20, except here the co-herbicidal component was SUTAN® PLUS, a commercial product comprising as the active herbicidal ingredient the compound butylate (Herbicide No. 10) and an antidote […] (Antidote No. 1). Again, the antidotal compounds herein were Nos. 1, 2, 7, 13 and 15. Procedure II was used.
# [3] = tested on: velvetleaf (Abutilon theophrasti); assay: as above
# Description: as §1, §2, §3, §4, §5
# corn [4] = assay: Example 6, Procedure II: Herbicide No. 1 + alachlor (No. 7) with antidotes
# In short: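 Herbicide No. 1 plus alachlor and antidote, each applied in acetone, mixed into silt loam cover soil over seeded corn; untreated and herbicide-only controls included. Given initial overhead irrigation equal to 0.6 cm rainfall, then greenhouse sub-irrigation. Percent injury scored, duplicate averages; efficacy is injury without minus with antidote.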
# [5] = tested on: barnyardgrass (Echinochloa crusgalli); assay: Example 19, Procedure II: Herbicide No. 1 + ERADICANE EXTRA with added antidotes
# Description: as §1, §2, §3, §4
# (§6) In the test reported in this example, the herbicidal composition was similar to that used in Example 16 in that Herbicide No. 1 was combined with EPTC (Herbicide No. 4) as a co-herbicide and the antidotes included Nos. 1, 2, 7, 13 and 15. However, in this test the EPTC was introduced as a formulation of ERADICANE (EPTC + the antidote R-25788, i.e., Antidote No. 1) at an application rate of 8.96 kg/ha. Thus, in this test two antidotes were present, viz. R-25788 and one of the auxilliary antidotes, No. 2, 13 and 15.
# (§7) The test reported in this example was performed in the same manner and with the same antidotes used in Example 18, the only difference being the substitution of the commercial herbicidal product ERADICANE® EXTRA for ERADICANE®. ERADICANE EXTRA is a formulation containing both an antidote, i.e., R-29148 (Antidote No. 5 herein), and an extender, dietholate.
# [6] = tested on: velvetleaf (Abutilon theophrasti); assay: as above
# Description: as §1, §2, §3, §4, §6, §7
# corn [7] = assay: Example 21, Procedure II: Herbicide No. 1 + SUTAN PLUS (butylate + antidote) with antidotes
# Description: as §1, §2, §3, §5
# [8] = tested on: barnyardgrass (Echinochloa crusgalli); assay: Example 7, Procedure II: Herbicide No. 1 + metolachlor (No. 12) with antidotes
# Description: as §1, §2, §3, §4
# (§8) In this example, Procedure II described above was followed. The data from the tests in this example is shown in Table 6 and represents averages of duplicate replications.
# (§9) The tests in this example followed the same procedure and antidotes used in Example 6. However, Herbicide No. 12 (metolachlor) was used as the co-herbicide with Herbicide No. 1.
# [9] = tested on: velvetleaf (Abutilon theophrasti); assay: as above
# Description: as §1, §2, §3, §4, §8, §9
# corn [10] = assay: as above
# In short: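 Herbicide plus antidote, applied in acetone, mixed into silt loam top soil used to cover corn seed beds, with untreated and herbicide-only controls. After incorporation, containers got overhead irrigation equal to 0.6 cm rainfall, then sub-irrigation in greenhouse. Percent injury scored; antidote efficacy is injury difference; duplicate averages.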
# [11] = tested on: barnyardgrass (Echinochloa crusgalli); assay: Example 6, Procedure II: Herbicide No. 1 + alachlor (No. 7) with antidotes
# Description: as §1, §2, §3, §4
# (§10) This example was designed to investigate the antidotal efficacy of a plurality of antidotal compounds against a composition comprising Herbicide No. 1 in combination with Herbicide No. 7 (alachlor). The antidotal compounds used herein were Nos. 1, 2, 7, 13 and 15.
# as §8
# [12] = tested on: velvetleaf (Abutilon theophrasti); assay: as above
# Description: as §1, §2, §3, §4, §10, §8
# [13] = Herbicide No.1 0.14 + No.9 2.24 kg/ha + antidote 2.24 kg/ha
# [14] = Herbicide No.1 0.14 + No.9 2.24 kg/ha + antidote 8.96 kg/ha
# [15] = Herbicide No.1 0.56 + No.9 2.24 kg/ha + antidote 2.24 kg/ha
# [16] = Herbicide No.1 0.56 + No.9 2.24 kg/ha + antidote 8.96 kg/ha
# [17] = Herbicide No.1 0.56 kg/ha + SUTAN + 8.96 kg/ha, antidote 2.24 kg/ha
# [18] = Herbicide No.1 0.56 kg/ha + SUTAN + 8.96 kg/ha, antidote 8.96 kg/ha
# [19] = Herbicide No.1 1.12 kg/ha + SUTAN + 8.96 kg/ha, antidote 2.24 kg/ha
# [20] = Herbicide No.1 1.12 kg/ha + SUTAN + 8.96 kg/ha, antidote 8.96 kg/ha
# [21] = Herbicide No.1 0.14 + No.7 4.48 kg/ha + antidote 2.24 kg/ha
# [22] = Herbicide No.1 0.14 + No.7 4.48 kg/ha + antidote 8.96 kg/ha
# [23] = Herbicide No.1 0.56 + No.7 4.48 kg/ha + antidote 2.24 kg/ha
# [24] = Herbicide No.1 0.56 + No.7 4.48 kg/ha + antidote 8.96 kg/ha
# [25] = Herbicide No.1 0.56 kg/ha + ERADICANE EXTRA 8.96 kg/ha, antidote 2.24 kg/ha
# [26] = Herbicide No.1 0.56 kg/ha + ERADICANE EXTRA 8.96 kg/ha, antidote 8.96 kg/ha
# [27] = Herbicide No.1 1.12 kg/ha + ERADICANE EXTRA 8.96 kg/ha, antidote 2.24 kg/ha
# [28] = Herbicide No.1 1.12 kg/ha + ERADICANE EXTRA 8.96 kg/ha, antidote 8.96 kg/ha
# [29] = Herbicide No.1 0.14 + No.12 3.36 kg/ha + antidote 2.24 kg/ha
# [30] = Herbicide No.1 0.14 + No.12 3.36 kg/ha + antidote 8.96 kg/ha
# [31] = Herbicide No.1 0.56 + No.12 3.36 kg/ha + antidote 2.24 kg/ha
# [32] = Herbicide No.1 0.56 + No.12 3.36 kg/ha + antidote 8.96 kg/ha
structure (smiles),measurement,setting,value
O=C1OC(=O)c2cccc3cccc1c23 [compound 2],% Injury Corn,corn [1]; [13],15%
same,% Injury Corn,corn [1]; [14],15%
same,% Injury Corn,corn [1]; [15],25%
same,% Injury Corn,corn [1]; [16],20%
same,% Injury BYG,[2]; [17],5%
same,% Injury BYG,[2]; [18],10%
same,% Injury BYG,[2]; [19],45%
same,% Injury BYG,[2]; [20],5%
same,% Injury VL,[3]; [17],55%
same,% Injury VL,[3]; [18],65%
same,% Injury VL,[3]; [19],70%
same,% Injury VL,[3]; [20],70%
same,% Injury Corn,corn [4]; [21],0%
same,% Injury Corn,corn [4]; [22],15%
same,% Injury Corn,corn [4]; [23],10%
same,% Injury Corn,corn [4]; [24],15%
same,% Injury BYG,[5]; [25],90%
same,% Injury BYG,[5]; [26],90%
same,% Injury BYG,[5]; [27],85%
same,% Injury BYG,[5]; [28],85%
same,% Injury VL,[6]; [25],75%
same,% Injury VL,[6]; [26],75%
same,% Injury VL,[6]; [27],85%
same,% Injury VL,[6]; [28],75%
same,% Injury Corn,corn [7]; [17],10%
same,% Injury Corn,corn [7]; [18],5%
same,% Injury Corn,corn [7]; [19],0%
same,% Injury Corn,corn [7]; [20],15%
same,% Injury BYG,[8]; [29],100%
same,% Injury BYG,[8]; [30],100%
same,% Injury BYG,[8]; [31],100%
same,% Injury BYG,[8]; [32],100%
same,% Injury VL,[9]; [29],75%
same,% Injury VL,[9]; [30],75%
same,% Injury VL,[9]; [31],80%
same,% Injury VL,[9]; [32],85%
same,% Injury Corn,corn [10]; [29],0%
same,% Injury Corn,corn [10]; [30],0%
same,% Injury Corn,corn [10]; [31],10%
same,% Injury Corn,corn [10]; [32],15%
same,% Injury BYG,[11]; [21],100%
same,% Injury BYG,[11]; [22],100%
same,% Injury BYG,[11]; [23],100%
same,% Injury BYG,[11]; [24],100%
same,% Injury VL,[12]; [21],70%
same,% Injury VL,[12]; [22],75%
same,% Injury VL,[12]; [23],90%
same,% Injury VL,[12]; [24],90%
C=CCN(CC=C)C(=O)C(Cl)Cl [compound 1],% Injury Corn,corn [1]; [13],20%
same,% Injury Corn,corn [1]; [14],10%
same,% Injury Corn,corn [1]; [15],20%
same,% Injury Corn,corn [1]; [16],15%
same,% Injury BYG,[2]; [17],0%
same,% Injury BYG,[2]; [18],25%
same,% Injury BYG,[2]; [19],10%
same,% Injury BYG,[2]; [20],35%
same,% Injury VL,[3]; [17],40%
same,% Injury VL,[3]; [18],65%
same,% Injury VL,[3]; [19],65%
same,% Injury VL,[3]; [20],60%
same,% Injury Corn,corn [4]; [21],10%
same,% Injury Corn,corn [4]; [22],0%
same,% Injury Corn,corn [4]; [23],15%
same,% Injury Corn,corn [4]; [24],5%
same,% Injury BYG,[5]; [25],90%
same,% Injury BYG,[5]; [26],90%
same,% Injury BYG,[5]; [27],90%
same,% Injury BYG,[5]; [28],95%
same,% Injury VL,[6]; [25],70%
same,% Injury VL,[6]; [26],75%
same,% Injury VL,[6]; [27],70%
same,% Injury VL,[6]; [28],85%
same,% Injury Corn,corn [7]; [17],15%
same,% Injury Corn,corn [7]; [18],15%
same,% Injury Corn,corn [7]; [19],30%
same,% Injury Corn,corn [7]; [20],20%
same,% Injury BYG,[8]; [29],100%
same,% Injury BYG,[8]; [30],100%
same,% Injury BYG,[8]; [31],100%
same,% Injury BYG,[8]; [32],100%
same,% Injury VL,[9]; [29],70%
same,% Injury VL,[9]; [30],75%
same,% Injury VL,[9]; [31],85%
same,% Injury VL,[9]; [32],80%
same,% Injury Corn,corn [10]; [29],0%
same,% Injury Corn,corn [10]; [30],0%
same,% Injury Corn,corn [10]; [31],0%
same,% Injury Corn,corn [10]; [32],10%
same,% Injury BYG,[11]; [21],100%
same,% Injury BYG,[11]; [22],100%
same,% Injury BYG,[11]; [23],100%
same,% Injury BYG,[11]; [24],100%
same,% Injury VL,[12]; [21],75%
same,% Injury VL,[12]; [22],80%
same,% Injury VL,[12]; [23],80%
same,% Injury VL,[12]; [24],85%
